Source: patent publication US12162890B2 (Novartis AG, priority 2015, dated 2024)

Target: HEK293 cells with stable expression of the GRIN1 gene and tetracycline-inducible expression of the GRIN2B gene (NMDA receptor, NR2B) (Homo sapiens, UniProt Q13224)
Test: Fluo-8 Ca2+ flux assay: reversal of Ro 25-6981-mediated suppression of the Ca2+ response to co-agonist (glutamate/glycine); further: test concentration or dose not given here
Type: cell-based
Settings: reversal of the Ro 25-6981 suppression of the Ca2+ response to co-agonist (glutamate/glycine)

Chain of HEK293 cells with stable expression of the GRIN1 gene and tetracycline-inducible expression of the GRIN2B gene (NMDA receptor, NR2B) (Q13224 27-1484, other chains not shown): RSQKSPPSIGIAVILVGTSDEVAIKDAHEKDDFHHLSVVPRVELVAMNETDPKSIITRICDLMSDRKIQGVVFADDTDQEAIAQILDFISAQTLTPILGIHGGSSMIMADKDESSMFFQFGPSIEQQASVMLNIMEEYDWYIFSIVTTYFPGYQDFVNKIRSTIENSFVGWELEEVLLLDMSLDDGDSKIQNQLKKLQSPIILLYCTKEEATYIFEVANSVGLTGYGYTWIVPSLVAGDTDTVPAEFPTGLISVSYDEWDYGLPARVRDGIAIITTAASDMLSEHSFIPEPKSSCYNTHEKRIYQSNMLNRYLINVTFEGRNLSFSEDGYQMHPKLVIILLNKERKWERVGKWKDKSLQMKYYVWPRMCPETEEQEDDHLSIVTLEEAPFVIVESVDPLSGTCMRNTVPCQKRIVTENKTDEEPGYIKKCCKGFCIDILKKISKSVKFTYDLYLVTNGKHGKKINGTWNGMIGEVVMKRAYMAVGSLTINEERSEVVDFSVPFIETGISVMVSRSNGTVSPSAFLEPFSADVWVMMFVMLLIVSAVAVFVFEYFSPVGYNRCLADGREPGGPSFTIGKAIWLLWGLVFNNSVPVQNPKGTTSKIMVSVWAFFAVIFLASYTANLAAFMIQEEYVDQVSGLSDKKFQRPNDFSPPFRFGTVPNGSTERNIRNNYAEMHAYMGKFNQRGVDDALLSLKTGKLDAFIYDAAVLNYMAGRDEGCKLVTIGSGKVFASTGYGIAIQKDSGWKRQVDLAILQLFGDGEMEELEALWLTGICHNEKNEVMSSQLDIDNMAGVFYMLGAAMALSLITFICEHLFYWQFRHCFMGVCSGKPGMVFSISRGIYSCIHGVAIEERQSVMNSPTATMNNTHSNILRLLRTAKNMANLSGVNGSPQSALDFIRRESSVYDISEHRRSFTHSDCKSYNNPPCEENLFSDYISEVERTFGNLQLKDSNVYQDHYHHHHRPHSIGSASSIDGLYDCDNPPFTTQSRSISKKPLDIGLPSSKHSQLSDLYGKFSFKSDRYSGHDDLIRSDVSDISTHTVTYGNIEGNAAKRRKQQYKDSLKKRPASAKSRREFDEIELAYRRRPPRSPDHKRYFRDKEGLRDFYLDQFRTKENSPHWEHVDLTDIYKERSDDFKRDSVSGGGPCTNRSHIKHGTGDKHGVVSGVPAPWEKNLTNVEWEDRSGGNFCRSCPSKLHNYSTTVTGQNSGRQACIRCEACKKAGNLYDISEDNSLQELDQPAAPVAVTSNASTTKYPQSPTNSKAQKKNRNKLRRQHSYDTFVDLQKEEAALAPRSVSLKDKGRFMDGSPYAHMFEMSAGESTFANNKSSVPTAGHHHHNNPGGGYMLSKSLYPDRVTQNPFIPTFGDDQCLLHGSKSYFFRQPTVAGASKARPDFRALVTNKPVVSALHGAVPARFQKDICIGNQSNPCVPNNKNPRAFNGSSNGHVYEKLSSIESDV

SMILES | Response Recovered (%)
O=C(Cn1cnc2ccn(-c3ccc(Cl)cc3)c2c1=O)N1CCCCC1 [Example 377, 5-(4-chlorophenyl)-3-(2-oxo-2-(piperidin-1-yl)ethyl)-3H-pyrrolo[3,2-d]pyrimidin-4(5H)-one] | 1
O=C(Cn1cnc2ccn(-c3ccc(Cl)cc3)c2c1=O)N1CCCC1C(F)(F)F (stereo not drawn) [Example 379, 5-(4-chlorophenyl)-3-(2-oxo-2-(2-(trifluoromethyl)pyrrolidin-1-yl)ethyl)-3H-pyrrolo[3,2-d]pyrimidin-4(5H)-one] | 5
O=C(Cn1cnc2snc(-c3ccc(Cl)cc3)c2c1=O)N1CCCC1 [Example 380, 3-(4-chlorophenyl)-5-(2-oxo-2-(pyrrolidin-1-yl)ethyl)isothiazolo[5,4-d]pyrimidin-4(5H)-one] | 6
O=C(Cn1cnc2snc(-c3ccc(Cl)cc3)c2c1=O)N1CC(F)(F)C1 [Example 381, 3-(4-chlorophenyl)-5-(2-(3,3-difluoroazetidin-1-yl)-2-oxoethyl)isothiazolo[5,4-d]pyrimidin-4(5H)-one] | 2
O=C(Cn1cnc2snc(-c3ccc(Cl)cc3)c2c1=O)N1CCCC1C(F)(F)F (stereo not drawn) [Example 382, 3-(4-chlorophenyl)-5-(2-oxo-2-(2-(trifluoromethyl)pyrrolidin-1-yl)ethyl)isothiazolo[5,4-d]pyrimidin-4(5H)-one] | 9
O=C(Cn1cnc2onc(-c3ccc(Cl)cc3)c2c1=O)N1CCCC1 [Example 383, 3-(4-chlorophenyl)-5-(2-oxo-2-(pyrrolidin-1-yl)ethyl)isoxazolo[5,4-d]pyrimidin-4(5H)-one] | 1
O=C(Cn1cnc2onc(-c3ccc(Cl)cc3)c2c1=O)N1CCCC1C(F)(F)F (stereo not drawn) [Example 384, 3-(4-chlorophenyl)-5-{2-oxo-2-[2-(trifluoromethyl)pyrrolidin-1-yl]ethyl}-4H,5H-[1,2]oxazolo[5,4-d]pyrimidin-4-one] | 2
O=C(Cn1cnc2onc(-c3ccc(Cl)cc3)c2c1=O)N1CC(F)(F)C1 [Example 385, 3-(4-chlorophenyl)-5-(2-(3,3-difluoroazetidin-1-yl)-2-oxoethyl)isoxazolo[5,4-d]pyrimidin-4(5H)-one] | 4
O=C(Cn1cnc2onc(-c3ccc(Cl)cc3)c2c1=O)N1CCC(F)C1 (stereo not drawn) [Example 386, 3-(4-chlorophenyl)-5-(2-(3-fluoropyrrolidin-1-yl)-2-oxoethyl)isoxazolo[5,4-d]pyrimidin-4(5H)-one] | 4
O=C(Cn1cnc2occ(-c3ccc(Cl)cc3)c2c1=O)N1CCC(C(F)(F)F)C1 (stereo not drawn) [Example 387, 5-(4-chlorophenyl)-3-(2-oxo-2-(3-(trifluoromethyl)pyrrolidin-1-yl)ethyl)furo[2,3-d]pyrimidin-4(3H)-one] | 7
O=C(Cn1cnc2occ(-c3ccc(Cl)cc3)c2c1=O)N1CCCC1 [Example 388, 5-(4-chlorophenyl)-3-(2-oxo-2-(pyrrolidin-1-yl)ethyl)furo[2,3-d]pyrimidin-4(3H)-one] | 8
O=C(Cn1cnc2occ(-c3ccc(Cl)cc3)c2c1=O)N1CC(F)(F)C1 [Example 389, 5-(4-chlorophenyl)-3-(2-(3,3-difluoroazetidin-1-yl)-2-oxoethyl)furo[2,3-d]pyrimidin-4(3H)-one] | 8
O=C(Cn1ccn2ccc(-c3ccc(F)c(C(F)(F)F)c3)c2c1=O)N1CCC(F)C1 (stereo not drawn) [Example 390, 8-(4-fluoro-3-(trifluoromethyl)phenyl)-2-(2-(3-fluoropyrrolidin-1-yl)-2-oxoethyl)pyrrolo[1,2-a]pyrazin-1(2H)-one] | 51
O=C(Cn1ccn2ccc(-c3ccc(F)c(C(F)(F)F)c3)c2c1=O)N1CCCC1 [Example 391, 8-(4-fluoro-3-(trifluoromethyl)phenyl)-2-(2-oxo-2-(pyrrolidin-1-yl)ethyl)pyrrolo[1,2-a]pyrazin-1(2H)-one] | 77
O=C(Cn1ccn2ccc(-c3ccc(F)c(Cl)c3)c2c1=O)N1CCCC1 [Example 392, 8-(3-chloro-4-fluorophenyl)-2-(2-oxo-2-(pyrrolidin-1-yl)ethyl)pyrrolo[1,2-a]pyrazin-1(2H)-one] | 118
O=C(Cn1ccn2ccc(-c3ccc(F)c(Cl)c3)c2c1=O)N1CCC(F)C1 (stereo not drawn) [Example 393, 8-(3-chloro-4-fluorophenyl)-2-(2-(3-fluoropyrrolidin-1-yl)-2-oxoethyl)pyrrolo[1,2-a]pyrazin-1(2H)-one] | 49
O=C(Cn1ccn2ccc(-c3ccc(Cl)c(Cl)c3)c2c1=O)N1CCCC1 [Example 394, 8-(3,4-dichlorophenyl)-2-(2-oxo-2-(pyrrolidin-1-yl)ethyl)pyrrolo[1,2-a]pyrazin-1(2H)-one] | 62
O=C(Cn1ccn2ccc(-c3ccc(Cl)c(Cl)c3)c2c1=O)N1CCC(F)C1 (stereo not drawn) [Example 395, 8-(3,4-dichlorophenyl)-2-(2-(3-fluoropyrrolidin-1-yl)-2-oxoethyl)pyrrolo[1,2-a]pyrazin-1(2H)-one] | 58
CC1(F)CN(C(=O)Cn2ccn3ccc(-c4ccc(Cl)c(Cl)c4)c3c2=O)C1 [Example 396, 8-(3,4-dichlorophenyl)-2-(2-(3-fluoro-3-methylazetidin-1-yl)-2-oxoethyl)pyrrolo[1,2-a]pyrazin-1(2H)-one] | 140
CC1(F)CN(C(=O)Cn2ccn3ccc(-c4ccc(F)c(Cl)c4)c3c2=O)C1 [Example 397, 8-(3-chloro-4-fluorophenyl)-2-(2-(3-fluoro-3-methylazetidin-1-yl)-2-oxoethyl)pyrrolo[1,2-a]pyrazin-1(2H)-one] | 140
O=C(Cn1ccn2ccc(-c3ccc(F)c(Cl)c3)c2c1=O)N1CC(F)(C2CC2)C1 [Example 398, 8-(3-chloro-4-fluorophenyl)-2-(2-(3-cyclopropyl-3-fluoroazetidin-1-yl)-2-oxoethyl)pyrrolo[1,2-a]pyrazin-1(2H)-one] | 43
O=C(Cn1ccn2ccc(-c3ccc(F)c(Cl)c3)c2c1=O)N1CC(F)(c2ccccc2)C1 [Example 399, 8-(3-chloro-4-fluorophenyl)-2-(2-(3-fluoro-3-phenylazetidin-1-yl)-2-oxoethyl)pyrrolo[1,2-a]pyrazin-1(2H)-one] | 1.5
CCC1(F)CN(C(=O)Cn2ccn3ccc(-c4ccc(F)c(Cl)c4)c3c2=O)C1 [Example 400, 8-(3-chloro-4-fluorophenyl)-2-(2-(3-ethyl-3-fluoroazetidin-1-yl)-2-oxoethyl)pyrrolo[1,2-a]pyrazin-1(2H)-one] | 97
CC1(F)CN(C(=O)Cn2ccn3ccc(-c4ccc(F)c(C(F)(F)F)c4)c3c2=O)C1 [Example 401, 8-(4-fluoro-3-(trifluoromethyl)phenyl)-2-(2-(3-fluoro-3-methylazetidin-1-yl)-2-oxoethyl)pyrrolo[1,2-a]pyrazin-1(2H)-one] | 160
